ChEMBL document CHEMBL1137403, “Discovery of 2-[4-{{2-(2S,5R)-2-cyano-5-ethynyl-1-pyrrolidinyl]-2-oxoethyl]amino]- 4-methyl-1-piperidinyl]-4-pyridinecarboxylic acid (ABT-279): a very potent, selective, effective, and well-tolerated inhibitor of dipeptidyl peptidase-IV, useful for the treatment of diabetes” (J Med Chem, 2006)

What was measured:
Dipeptidyl peptidase 8 = Dipeptidyl peptidase 8 (Homo sapiens, UniProt Q6V1X1)
Dipeptidyl peptidase 9 = Dipeptidyl peptidase 9 (Homo sapiens, UniProt Q86TI2)
Sequence of Dipeptidyl peptidase 9 (Q86TI2 whole entry): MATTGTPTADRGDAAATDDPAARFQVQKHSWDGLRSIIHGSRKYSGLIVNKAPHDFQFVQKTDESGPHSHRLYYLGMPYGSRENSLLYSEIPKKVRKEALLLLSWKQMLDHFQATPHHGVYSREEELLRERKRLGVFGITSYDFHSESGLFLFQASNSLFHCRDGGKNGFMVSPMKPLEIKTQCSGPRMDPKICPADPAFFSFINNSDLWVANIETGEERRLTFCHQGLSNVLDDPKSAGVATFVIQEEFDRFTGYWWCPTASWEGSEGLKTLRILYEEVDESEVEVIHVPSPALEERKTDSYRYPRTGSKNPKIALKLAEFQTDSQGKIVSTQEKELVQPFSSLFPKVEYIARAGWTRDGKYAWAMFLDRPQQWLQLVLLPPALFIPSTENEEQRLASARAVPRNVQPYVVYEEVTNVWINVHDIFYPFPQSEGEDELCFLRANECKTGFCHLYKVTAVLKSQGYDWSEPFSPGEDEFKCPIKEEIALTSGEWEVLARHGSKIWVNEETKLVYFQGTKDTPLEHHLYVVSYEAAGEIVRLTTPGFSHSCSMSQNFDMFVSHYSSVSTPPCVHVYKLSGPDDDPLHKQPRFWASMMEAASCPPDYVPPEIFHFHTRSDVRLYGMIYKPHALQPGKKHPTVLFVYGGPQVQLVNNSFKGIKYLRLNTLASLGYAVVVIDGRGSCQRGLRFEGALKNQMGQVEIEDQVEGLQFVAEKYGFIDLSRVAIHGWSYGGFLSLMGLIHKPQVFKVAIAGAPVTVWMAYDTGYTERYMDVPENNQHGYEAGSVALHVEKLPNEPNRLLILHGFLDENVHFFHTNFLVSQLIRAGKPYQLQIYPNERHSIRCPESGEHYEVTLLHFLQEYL

Sequence of Dipeptidyl peptidase 8 (Q6V1X1 whole entry): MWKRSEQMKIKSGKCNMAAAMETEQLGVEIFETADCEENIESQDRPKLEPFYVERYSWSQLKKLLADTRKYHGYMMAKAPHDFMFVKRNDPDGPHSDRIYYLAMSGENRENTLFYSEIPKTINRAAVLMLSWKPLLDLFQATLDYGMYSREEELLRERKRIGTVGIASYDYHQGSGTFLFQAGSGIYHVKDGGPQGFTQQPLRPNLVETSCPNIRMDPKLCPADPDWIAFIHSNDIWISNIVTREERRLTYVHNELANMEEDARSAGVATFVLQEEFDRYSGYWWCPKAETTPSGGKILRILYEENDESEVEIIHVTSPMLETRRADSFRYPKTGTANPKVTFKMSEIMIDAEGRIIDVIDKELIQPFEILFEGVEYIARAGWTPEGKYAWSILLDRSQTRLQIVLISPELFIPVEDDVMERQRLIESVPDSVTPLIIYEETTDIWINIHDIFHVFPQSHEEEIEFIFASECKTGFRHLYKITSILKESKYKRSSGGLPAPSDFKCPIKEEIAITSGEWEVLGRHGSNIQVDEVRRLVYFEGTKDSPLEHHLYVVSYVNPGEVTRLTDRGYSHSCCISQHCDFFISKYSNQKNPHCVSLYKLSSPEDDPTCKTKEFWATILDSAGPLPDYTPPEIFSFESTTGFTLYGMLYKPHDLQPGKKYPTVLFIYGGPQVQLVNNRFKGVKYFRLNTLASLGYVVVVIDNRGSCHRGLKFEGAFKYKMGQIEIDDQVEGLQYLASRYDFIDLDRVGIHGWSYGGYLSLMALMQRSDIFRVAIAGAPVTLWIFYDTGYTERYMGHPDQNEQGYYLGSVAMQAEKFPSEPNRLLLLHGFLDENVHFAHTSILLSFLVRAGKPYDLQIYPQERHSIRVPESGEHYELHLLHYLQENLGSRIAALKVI

Ki (Dipeptidyl peptidase 8): > 30 µM
Ki (Dipeptidyl peptidase 9): > 30 µM
Compound: C#C[C@H]1CC[C@@H](C#N)N1C(=O)CNC1CCCC1
